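In this assay, cells in 96-well plates receive the compound at five concentrations for 48 hours. Endpoints are linearly interpolated between the surrounding concentrations. GI50 = concentration required for 50% inhibition of growth.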 The source made the active and inactive calls. Cut-off read from the data, not from the text of the source: active = GI50 up to about 1.1 µM and inactive = higher.
Legend:
Experiment in all cases: growth of human tumour cells (NCI), 48 h
[1] = tested on: UACC-257
[2] = tested on: RPMI-8226
[3] = tested on: M14
[4] = tested on: NCI-H460
[5] = tested on: SF-268
[6] = tested on: OVCAR-5
[7] = tested on: SNB-19
[8] = tested on: HCT-116
[9] = tested on: SN12C
[10] = tested on: SW-620
[11] = tested on: NCI-H226
[12] = tested on: HOP-62
[13] = tested on: CAKI-1
[14] = tested on: OVCAR-8
[15] = tested on: KM12
[16] = tested on: T47D
[17] = tested on: ACHN
[18] = tested on: UO-31
[19] = tested on: HCT-15
[20] = tested on: MDA-MB-435
[21] = tested on: HCC 2998
[22] = tested on: SK-MEL-2
[23] = tested on: HT-29
[24] = tested on: SNB-75
[25] = tested on: HOP-92
[26] = tested on: PC-3
[27] = tested on: SF-539
[28] = tested on: HL-60
[29] = tested on: Hs-578T
[30] = tested on: NCI-H23
[31] = tested on: MDA-N
[32] = tested on: RXF 393
[33] = tested on: A549
[34] = tested on: MCF7
[35] = tested on: DU-145
[36] = tested on: SK-MEL-28
[37] = tested on: SR
[38] = tested on: MDA-MB-231
[39] = tested on: U-251
[40] = tested on: UACC-62
[41] = tested on: MOLT-4
[42] = tested on: 786-0
[43] = tested on: NCI-H522
[44] = tested on: OVCAR-3
[45] = tested on: SK-MEL-5
[46] = tested on: SF-295
[47] = tested on: TK-10
[48] = tested on: BT-549
[49] = tested on: K562
[50] = tested on: IGROV-1
[51] = tested on: NCI/ADR-RES
[52] = tested on: Malme-3M
[53] = tested on: OVCAR-4
[54] = tested on: SK-OV-3
[55] = tested on: CCRF-CEM
[56] = tested on: LOX IMVI
[57] = tested on: EKVX
[58] = tested on: COLO 205

N#CCC(=O)Nn1c(CC#N)nnc1Cc1ccccc1
GI50 [1]: > 100 µM (inactive) | GI50 [2]: > 100 µM (inactive) | GI50 [3]: > 100 µM (inactive) | GI50 [4]: > 100 µM (inactive) | GI50 [5]: > 100 µM (inactive) | GI50 [6]: > 100 µM (inactive) | GI50 [7]: > 100 µM (inactive) | GI50 [8]: > 100 µM (inactive) | GI50 [9]: > 10 µM (inactive) | GI50 [10]: > 100 µM (inactive) | GI50 [11]: > 100 µM (inactive) | GI50 [12]: > 100 µM (inactive) | GI50 [13]: > 100 µM (inactive) | GI50 [14]: > 100 µM (inactive) | GI50 [15]: > 100 µM (inactive) | GI50 [16]: > 100 µM (inactive) | GI50 [17]: > 100 µM (inactive) | GI50 [18]: > 100 µM (inactive) | GI50 [19]: > 100 µM | GI50 [20]: > 100 µM (inactive) | GI50 [21]: > 100 µM (inactive) | GI50 [22]: > 100 µM (inactive) | GI50 [23]: > 100 µM (inactive) | GI50 [24]: > 100 µM (inactive) | GI50 [25]: > 100 µM (inactive) | GI50 [26]: > 100 µM (inactive) | GI50 [27]: > 100 µM (inactive) | GI50 [28]: > 100 µM (inactive) | GI50 [29]: > 100 µM (inactive) | GI50 [30]: > 100 µM (inactive) | GI50 [31]: > 100 µM (inactive) | GI50 [32]: > 100 µM (inactive) | GI50 [33]: > 100 µM (inactive) | GI50 [34]: > 100 µM (inactive) | GI50 [35]: > 100 µM (inactive) | GI50 [36]: > 100 µM (inactive) | GI50 [37]: > 100 µM (inactive) | GI50 [38]: > 100 µM (inactive) | GI50 [39]: > 100 µM (inactive) | GI50 [40]: > 100 µM (inactive) | GI50 [41]: > 100 µM (inactive) | GI50 [42]: > 100 µM (inactive) | GI50 [43]: > 100 µM (inactive) | GI50 [44]: > 100 µM (inactive) | GI50 [45]: > 100 µM (inactive) | GI50 [46]: > 100 µM (inactive) | GI50 [47]: > 100 µM (inactive) | GI50 [48]: > 100 µM (inactive) | GI50 [49]: > 100 µM (inactive) | GI50 [50]: > 100 µM (inactive) | GI50 [51]: > 100 µM (inactive) | GI50 [52]: > 100 µM (inactive)

O=Cc1c2ccccc2n2ccc3c4ccccc4[nH]c3c12
GI50 [1]: > 10 µM (inactive) | GI50 [2]: > 10 µM (inactive) | GI50 [3]: > 10 µM (inactive) | GI50 [53]: > 10 µM (inactive) | GI50 [4]: > 10 µM (inactive) | GI50 [5]: > 10 µM (inactive) | GI50 [6]: > 10 µM (inactive) | GI50 [7]: > 10 µM (inactive) | GI50 [8]: > 10 µM (inactive) | GI50 [9]: > 10 µM (inactive) | GI50 [10]: > 10 µM (inactive) | GI50 [11]: > 10 µM (inactive) | GI50 [12]: > 10 µM (inactive) | GI50 [13]: > 10 µM (inactive) | GI50 [14]: > 10 µM (inactive) | GI50 [15]: 0.344 µM (active) | GI50 [16]: > 10 µM (inactive) | GI50 [54]: > 10 µM (inactive) | GI50 [17]: > 10 µM (inactive) | GI50 [18]: > 10 µM (inactive) | GI50 [19]: > 10 µM | GI50 [20]: > 10 µM (inactive) | GI50 [21]: > 10 µM (inactive) | GI50 [22]: > 10 µM (inactive) | GI50 [23]: > 10 µM (inactive) | GI50 [24]: > 10 µM (inactive) | GI50 [25]: > 10 µM (inactive) | GI50 [26]: > 10 µM (inactive) | GI50 [27]: > 10 µM (inactive) | GI50 [28]: > 10 µM (inactive) | GI50 [55]: > 10 µM (inactive) | GI50 [29]: > 10 µM (inactive) | GI50 [30]: > 10 µM (inactive) | GI50 [31]: > 10 µM (inactive) | GI50 [32]: > 10 µM (inactive) | GI50 [33]: > 10 µM (inactive) | GI50 [34]: 5.21 µM (inactive) | GI50 [56]: > 10 µM (inactive) | GI50 [35]: > 10 µM (inactive) | GI50 [37]: 8.77 µM (inactive) | GI50 [38]: > 10 µM (inactive) | GI50 [39]: > 10 µM (inactive) | GI50 [40]: > 10 µM (inactive) | GI50 [41]: > 10 µM (inactive) | GI50 [42]: > 10 µM (inactive) | GI50 [43]: > 10 µM (inactive) | GI50 [44]: > 10 µM (inactive) | GI50 [45]: > 10 µM (inactive) | GI50 [57]: 3.57 µM (inactive) | GI50 [46]: > 10 µM (inactive) | GI50 [47]: > 10 µM (inactive) | GI50 [48]: > 10 µM (inactive) | GI50 [49]: > 10 µM (inactive) | GI50 [50]: > 10 µM (inactive) | GI50 [51]: > 10 µM (inactive) | GI50 [52]: > 10 µM (inactive) | GI50 [58]: > 10 µM (inactive)

O=C1CC(=O)NC(NNS(=O)(=O)c2ccccc2)=N1
GI50 [1]: > 100 µM (inactive) | GI50 [2]: > 100 µM (inactive) | GI50 [3]: > 100 µM (inactive) | GI50 [53]: > 100 µM (inactive) | GI50 [4]: > 100 µM (inactive) | GI50 [5]: > 100 µM (inactive) | GI50 [6]: > 100 µM (inactive) | GI50 [7]: > 100 µM (inactive) | GI50 [8]: > 100 µM (inactive) | GI50 [9]: > 100 µM (inactive) | GI50 [10]: > 100 µM (inactive) | GI50 [11]: > 100 µM (inactive) | GI50 [12]: > 100 µM (inactive) | GI50 [13]: > 100 µM (inactive) | GI50 [14]: > 100 µM (inactive) | GI50 [15]: > 100 µM (inactive) | GI50 [16]: > 100 µM (inactive) | GI50 [54]: > 100 µM (inactive) | GI50 [17]: > 100 µM (inactive) | GI50 [18]: > 100 µM (inactive) | GI50 [19]: > 100 µM | GI50 [20]: > 100 µM (inactive) | GI50 [21]: > 100 µM (inactive) | GI50 [22]: > 100 µM (inactive) | GI50 [23]: > 100 µM (inactive) | GI50 [24]: > 100 µM (inactive) | GI50 [25]: > 100 µM (inactive) | GI50 [26]: > 100 µM (inactive) | GI50 [27]: > 100 µM (inactive) | GI50 [55]: > 100 µM (inactive) | GI50 [29]: > 100 µM (inactive) | GI50 [30]: > 100 µM (inactive) | GI50 [31]: > 100 µM (inactive) | GI50 [32]: > 100 µM (inactive) | GI50 [33]: > 100 µM (inactive) | GI50 [34]: > 100 µM (inactive) | GI50 [35]: > 100 µM (inactive) | GI50 [36]: > 100 µM (inactive) | GI50 [37]: > 100 µM (inactive) | GI50 [38]: > 100 µM (inactive) | GI50 [39]: > 100 µM (inactive) | GI50 [40]: > 100 µM (inactive) | GI50 [41]: > 100 µM (inactive) | GI50 [42]: > 100 µM (inactive) | GI50 [43]: > 100 µM (inactive) | GI50 [44]: > 100 µM (inactive) | GI50 [45]: > 100 µM (inactive) | GI50 [46]: > 100 µM (inactive) | GI50 [47]: > 100 µM (inactive) | GI50 [48]: > 100 µM (inactive) | GI50 [49]: > 100 µM (inactive) | GI50 [50]: > 100 µM (inactive) | GI50 [51]: > 100 µM (inactive) | GI50 [52]: > 100 µM (inactive) | GI50 [58]: > 100 µM (inactive)
